Results: patent publication US11214803B2, “Modulators of YAP1 expression” (Ionis Pharmaceuticals, Inc., priority 2019, dated 2022)

How the values were obtained:
[1] = test system: Yap1 mRNA; assay: Yap1 mRNA in SCC25 cells, RNA analysis (Example 25); format: cell-based, human; conditions: free uptake, 48 hours, RTS4814, normalized to actin-beta
Experimental: (§1) Modified oligonucleotides described in the studies above were tested at various doses in squamous cell carcinoma cell SCC25. A control oligonucleotide 792169 (a 3-10-3 cET gapmer with a full phosphorothioate backbone, […], designated herein as SEQ ID No.: 2940; is not complementary to any known human gene) was also tested.
Cultured SCC25 cells at a density of 5,000 cells per well were treated using free uptake with modified oligonucleotides diluted to concentrations described in the tables below. After approximately 48 hours, Yap1 mRNA levels were measured as previously described using the Human Yap1 primer-probe set RTS4814. Yap1 mRNA levels were normalized to actin-beta content, as measured by primer probe set RTS5002 (forward sequence […], designated herein as SEQ ID NO.: 20; reverse sequence […], designated herein as SEQ ID NO.: 21; probe sequence […], designated herein as SEQ ID NO.: 22). Results are presented in the tables below as percent control of the amount of Yap1 mRNA relative to untreated control cells (% UTC).

[2] = test system: SCC25 cells; assay: Cell proliferation assay in SCC25 cells, CellTiter-Glo (Example 25); format: cell-based, human; conditions: free uptake, 144 hours
Experimental: as §1
Cultured SCC25 cells at a density of 1,000 cells/well were treated using free uptake with modified oligonucleotides diluted to concentrations described in the tables below. After approximately 144 hours, cell proliferation was measured using the luminescent cell viability CellTiter-Glo® 2.0 Assay (Promega). Results are presented in the tables below as percent control of the amount of luminescence in samples treated with modified oligonucleotides relative to untreated control cells (% UTC).

[3] = test system: Yap1 mRNA; assay: Inhibition of human Yap1 mRNA in epidermoid carcinoma A-431 xenograft tumors (Example 27); format: in vivo; conditions: A-431 xenografts in NCr-Foxn1nu mice, 6-8 hours post final dose, relative to PBS
Experimental: An epidermoid carcinoma A-431 xenograft tumor model was used to evaluate activity of modified oligonucleotides targeted to human Yap1. Five million A-431 cells in 30% matrigel were implanted subcutaneously into the flanks of female NCr-Foxn1nu mice (from Taconic) at 4-6 weeks of age. When tumors reached an average volume of 40 mm^3, approximately two weeks post-implantation, groups of four mice each were administered at either 25 mg/kg or 50 mg/kg daily with modified oligonucleotides for […] (5 doses). Tumors were collected 6-8 hours post final dose and tested for Yap1 mRNA knockdown by RT-qPCR. Yap1 mRNA levels were measured as previously described using the Human Yap1 primer-probe set RTS4814. Yap1 mRNA levels were normalized to actin-beta content, as measured by primer probe set RTS5002. Results are presented in the tables below as percent control of the amount of Yap1 mRNA relative to PBS treated animals (% control).

[4] = test system: Yap1 mRNA; assay: Inhibition of human Yap1 mRNA in squamous cell carcinoma CAL27 xenograft tumors (Example 28); format: in vivo; conditions: CAL27 xenografts in NCr-Foxn1nu mice, relative to PBS treated
Experimental: A squamous cell carcinoma CAL27 xenograft tumor model was used to evaluate activity of modified oligonucleotides targeted to human Yap1. Five million CAL27 cells in 30% matrigel were implanted subcutaneously into the flanks of female CrTac:NCr-Foxn1nu mice (from Taconic) at 4-6 weeks of age. Groups of four mice each were administered with either 15 mg/kg or 30 mg/kg of modified oligonucleotides daily for five days after tumor size had reached ˜100 mm^3 (about 3 weeks post implantation). Tumors were collected and tested for Yap1 mRNA knockdown by RT-qPCR. Yap1 mRNA levels were measured as previously described using the Human Yap1 primer-probe set RTS4814. Yap1 mRNA levels were normalized to actin-beta content, as measured by primer probe set RTS5002. Results are presented in the tables below as percent control of the amount of Yap1 mRNA relative to PBS treated […].

[5] = Cynomolgus monkey tolerability, body and organ weight measurements (Example 34); format: in vivo; conditions: cynomolgus monkeys, 35 mg/kg subcutaneously; for Heart weight / Kidney weight / Liver with gallbladder weight / Spleen weight: necropsy; for Terminal Body Weight: prior to necropsy
Experimental: Cynomolgus monkeys were treated with Ionis modified oligonucleotides selected from studies described in the Examples above. Modified oligonucleotide tolerability was evaluated.
During the study period, the monkeys were observed twice daily for signs of illness or distress. Any animal experiencing more than momentary or slight pain or distress due to the treatment, injury or illness was treated by the veterinary staff with approved analgesics or agents to relieve the pain after consultation with the Study Director. Any animal in poor health or in a possible moribund condition was identified for further monitoring and possible euthanasia. Scheduled euthanasia of the animals was conducted on day 86 approximately 48 hours after the last dose by exsanguination while under deep anesthesia. The protocols described in the Example were approved by the Institutional Animal Care and Use Committee (IACUC).
To evaluate the effect of Ionis oligonucleotides on the overall health of the animals, body and organ weights were measured. Terminal body weight was measured prior to necropsy.

[6] = Cynomolgus monkey tolerability, pro-inflammatory proteins analysis, Complement C3 and CRP (Example 34); format: in vivo; conditions: cynomolgus monkeys, 35 mg/kg subcutaneously; for CRP: day 44
Experimental: To evaluate any inflammatory effect of Ionis oligonucleotides in cynomolgus monkeys, blood samples were taken for analysis. The monkeys were fasted overnight prior to blood collection. On day 42 (pre-dose and 24 hours post-dose), approximately 0.8 mL of blood was collected from each animal and put into tubes without anticoagulant for serum separation. […] Complement C3 were measured using a Toshiba 120 FR NEO chemistry analyzer (Toshiba Co., Japan). […] Another marker of inflammation, C-Reactive Protein (CRP) was tested together with the clinical chemistry parameters tested for liver function above.

[7] = rat, in vivo, sc, 50 mg/kg
Experimental: Male Sprague-Dawley rats were maintained on a 12-hour light/dark cycle and fed ad libitum with Purina normal rat chow. Groups of 4 Sprague-Dawley rats each were weekly injected subcutaneously with 50 mg/kg of Ionis oligonucleotide for 6 weeks (total 7 doses). Forty-eight hours after the last dose, the rats were euthanized; and organs, urine and plasma were harvested for further analysis.
To evaluate the effect of Ionis oligonucleotides on kidney function, urinary levels of total protein and creatinine were measured using an automated clinical chemistry analyzer (Hitachi Olympus AU400c, Melville, N.Y.).

[8] = Cynomolgus monkey tolerability, urine analysis (Example 34); conditions: cynomolgus monkeys, 35 mg/kg subcutaneously, day 44

Substance	Yap1 mRNA, % UTC ([1]; 0.04 μM) [% UTC]	Yap1 mRNA, % UTC ([1]; 0.2 μM) [% UTC]	Yap1 mRNA, % UTC ([1]; 1 μM) [% UTC]	Yap1 mRNA, % UTC ([1]; 5 μM) [% UTC]	cell proliferation (luminescence) % UTC ([2]; 0.04 μM) [% UTC]	cell proliferation (luminescence) % UTC ([2]; 0.2 μM) [% UTC]	cell proliferation (luminescence) % UTC ([2]; 1 μM) [% UTC]	cell proliferation (luminescence) % UTC ([2]; 5 μM) [% UTC]	Yap1 mRNA in tumors, % control ([3]; 25 mpk daily (5 doses)) [% control]	Yap1 mRNA in tumors, % control ([3]; 50 mpk daily (5 doses)) [% control]	Yap1 mRNA in tumors, % UTC ([4]; 15 mg/kg daily for five days) [% UTC]	Yap1 mRNA in tumors, % UTC ([4]; 30 mg/kg daily for five days) [% UTC]	Heart weight [5] [g]	Kidney weight [5] [g]	Liver with gallbladder weight [5] [g]	Spleen weight [5] [g]	Terminal Body Weight [5] [g]	Complement C3 ([6]; Day 42 (pre-dose)) [mg/dL]	Complement C3 ([6]; day 42 (24 hr post-dose)) [mg/dL]	CRP [6] [mg/L]	also measured
1197270 (TTAAAGTGTATGTCAG; cEt gapmer with 2'-OMe nucleoside, phosphorothioate, further chemistry not given here) [compound 1197270]	48	24	12	7	75	40	22	14	57	38	55	38	10	17	73	4	2852	103	86	9.8	URINE P/C ratio (total protein to creatinine ratio) [7]: 14; UALB [8]: 1.3 mg/dL; UCRE [8]: 56 mg/dL; UTP [8]: 18 mg/dL
1198623 (CTAAGTAAGGTTTCCC; modified gapmer, further chemistry not given here) [compound 1198623]	61	31	15	10	84	55	36	29	43	36	52	44	9	13	62	3	2790	105	101	2.0	URINE P/C ratio (total protein to creatinine ratio) [7]: 5; UALB [8]: 0.2 mg/dL; UCRE [8]: 44 mg/dL; UTP [8]: 10 mg/dL
